What all share (assay type): functional, cell-based
The test system of test [1] is HL-60. The experiment in a line: Cytotoxicity against Homo sapiens (human) HL60 cells assessed as reduction in cell survival fraction after 48 hr by MTT assay. The settings on record: HL-60, 48 h.
The test system of test [2] is NALM-6. The experiment in a line: Cytotoxicity against Homo sapiens (human) NALM6 cells assessed as reduction in cell survival fraction after 48 hr by MTT assay. The settings on record: NALM-6, 48 h. A general note: Tetrazolium dyes change colour on reduction, which living cells bring about.
Test [3] relates to HL-60. The test is described as follows: Induction of apoptosis in Homo sapiens (human) HL60 cells assessed as increase in cytosolic cytochrome c level at 5 times IC50 after 0.5 hr by ELISA. (In an ELISA, binding on a coated surface is turned into a signal by an enzyme label.)
The test system of test [4] is HL-60. The test is described as follows: Induction of apoptosis in Homo sapiens (human) HL60 cells assessed as increase in cytosolic cytochrome c level at IC50 after 0.5 hr by ELISA.
For test [5], the system named is HL-60. The experiment in a line: Induction of apoptosis in Homo sapiens (human) HL60 cells assessed as increase in cytosolic cytochrome c level at 0.2 times IC50 after 0.5 hr by ELISA.
For test [6], the system named is HL-60. The test is described as follows: Induction of apoptosis in Homo sapiens (human) HL60 cells assessed as increase in cytosolic cytochrome c level at 0.2 to 5 times IC50 by ELISA. The settings on record: TDE = time-dependent effect.
Test [7] concerns HL-60. The test is described as follows: Induction of apoptosis in Homo sapiens (human) HL60 cells assessed as increase in cytosolic cytochrome c level after 0.5 to 4 hr by ELISA.
The nature of test [8]: Cytotoxicity against Homo sapiens (human) HL60/ADR cells assessed as reduction in cell survival fraction after 48 hr by MTT assay.

Counter-ions that a name gives are not always drawn. Active and inactive are the calls of the source. The rule behind the calls is not given here. Some results are limits rather than exact numbers.

Consider `COC(=O)N/N=C/c1c(N)oc2ccccc2c1=O`, for which the IC50 (in general, the point on the concentration scale where inhibition reaches its midpoint) in test [1] was 463 µM; in test [2], 407 µM.

As for `Nc1oc2ccc(Cl)cc2c(=O)c1/C=N/NCCO`, the result in test [3], in test [4] and in test [5] was Active. In addition, the Activity result in test [6] was “tde”; in test [7], “Dose-dependent effect”. Further, the IC50 in test [1] came to 6.6 µM; in test [8], 7.9 µM; in test [2], 28 µM.

`CC(=O)CC(c1ccccc1)c1c(O)c2ccccc2oc1=O` (stereo not given) [WARFARIN]: the values for the IC50 in test [1] and in test [2] were 486 µM and 74.8 µM, respectively.

Consider `Nc1oc2ccccc2c(=O)c1/C=N/Nc1cc(Cl)ccc1Cl`, for which the IC50 is more than 1000 µM in test [1] and 500 µM in test [2].

With `CCOP(=S)(OCC)N(C)/N=C/c1c(O)c2ccccc2oc1=O`, the IC50 was found to be 86.3 µM in test [1] and 66.5 µM in test [2].

As for `Nc1oc2ccccc2c(=O)c1/C=N/NCCO`, the IC50 in test [1] is 48.5 µM; in test [2], 42.1 µM.

For the compound `COP(=S)(OC)N(C)/N=C/c1coc2ccccc2c1=O`, the outcome in test [3], in test [4] and in test [5] was Active. In addition, the Activity result was “tde” in test [6] and “Dose-dependent effect” in test [7]. The values for the 50% inhibitory concentration (IC50) in test [1], in test [8] and in test [2] were 34.4 µM, 30.6 µM and 28.8 µM, respectively.

Turning to `COC(=O)N/N=C/c1coc2ccccc2c1=O`, the IC50 in test [1] is 371 µM; in test [2], 309 µM.

For `Nc1oc2ccccc2c(=O)c1/C=N/N=C(c1ccccc1)c1ccccc1`, the IC50 in test [1] turned out to be 56.2 µM; in test [8], 54.8 µM; in test [2], 102 µM.

Turning to `COP(=S)(OC)N(C)/N=C/c1c(O)c2ccccc2oc1=O`, the IC50 was 61.8 µM in test [1] and 56.5 µM in test [2].

Consider `O=c1c(/C=N/Nc2cc(Cl)ccc2Cl)coc2ccccc12`, for which the IC50 in test [1] stood at 265 µM; in test [2], 85.3 µM.

On to `COc1cccc2c1C(=O)c1c(O)c3c(c(O)c1C2=O)C[C@@](O)(C(=O)CO)C[C@@H]3O[C@H]1C[C@H](N)[C@H](O)[C@H](C)O1` [DOXORUBICIN HYDROCHLORIDE], for which the IC50 in test [1] was determined as 0.04 µM.

Regarding `Cc1cc2oc(N)c(/C=N/NCCO)c(=O)c2cc1C`, the IC50 worked out at 23.5 µM in test [1] and 65.3 µM in test [2].

Take `Nc1oc2ccccc2c(=O)c1/C=N/Nc1ccc(C(=O)O)cc1`: the results for the IC50 in test [1] and in test [2] were 940 µM and 628 µM, respectively.

For the origin of these results see ChEMBL document CHEMBL3044544, “Synthesis, preliminary cytotoxicity evaluation of new 3-formylchromone hydrazones and phosphorohydrazone derivatives of coumarin and chromone” (Med Chem Res, 2012).
